Experimental data as given in US20240002789A1, “SKIN SPHEROIDS AND PROCESS OF PREPARATION AND USE THEREOF” (The Governing Council of The University of Toronto, priority 2020, published 2024).

Tests used:
Assay type in all cases: cell-based, human
[1] = test system: dermal fibroblasts spheroids (DFSs); assay: On-chip screening of active ingredients on DFSs: collagen type I and fibronectin secretion (ELISA of culture supernatant)
Experimental: The microfluidic device was first, purged for 20 min with fluorinated oil with 0.5 wt % 008-fluorosurfactant (RAN Biotechnologies, USA) at a flow rate of 0.1 mL/hr. Subsequently, the supplying channel and the microwells were filled with the hDFs-in-EKGel I suspension with a cell density of 4.9×10^5 cells/μL. After that, the cell suspension in the supplying channel was replaced with fluorinated oil with 0.5 wt % surfactants. The inlet and outlet of the microfluidics quadruplet device were then sealed with PCR sealing tape and incubated at 37° C. for 2 hours, allowing EKGel to gel. Subsequently, the complete culture medium was continuously flowed through the supplying channel at the flow rate of 0.025 mL/hr. On the second day (Day 1), hDFs-laden EKGel droplets transformed into dermal fibroblasts spheroids (DFSs). Due to the contraction of DFSs, free space was present in each microwell, which allowed the incorporation of a second layer. To introduce another layer of keratinocytes, the culture medium was replaced by fluorinated oil with 0.5 wt % surfactants.
(§1) To study the effect of vitamin C or retinol on DFSs or KDFSs, on Day 2 the complete culture medium was replaced with 1% FBS DMEM culture medium with 1% (v/v) penicillin/streptomycin containing 0, 20, or 100 μg/mL vitamin C. Retinol at concentrations of 0, 30, 45, 60 μM was dissolved in 1% FBS DMEM culture medium with 1% (v/v) penicillin/streptomycin and 0.1% dimethyl sulfoxide (DMSO). The culture supernatant was collected from the outlet every 24-hours for analysis.
The amount of procollagen type I and fibronectin synthesized by hDFs and released in the supernatant were quantified using two ELISA kits, namely, Procollagen Type I C-Peptide (PIP) ELISA kit (MK101, Takara Bio Inc.) and Fibronectin ELISA kit (MK115, Takara Bio Inc.). Procollagen type I was used as the indicator for the collagen type I synthesized from hDFs. To determine the amount of procollagen type I synthesized by the cells, 20 μL collected culture supernatant and 100 μL of the anti-PIP antibody-peroxidase (POD) were added into a 96-well microplate coated with anti-PIP antibody and incubated at 37° C. for 3 hours. To determine the amount of fibronectin synthesized by the cells, 100 μL of the supernatant was first, added to the antibody-coated 96-well microplate for 1 hour at 37° C., thus allowing the fibronectin in the supernatant to bond to the antibody-coated on the microplate.
The supernatant was then discarded, and the microplates were washed with 1×PBS (MK021, Takara Bio Inc.) three times. Subsequently, the captured fibronectin was tagged by adding 100 μL of anti-human fibronectin antibody-POD conjugate into the microplate and incubating it for another 1 hour at 37° C. Upon completion of the antibody-POD conjugate incubation for both assays, the liquid content in the microwells was discarded and the microwells were washed four times with 1×PBS. 100 μL substrate solution (solution of 3,3′,5,5′-tetramethylbenzidine) was then added to the wells and incubated at room temperature for 15 min. Subsequently, 100 μL stop solution (MK021, Takara Bio Inc.) was added to each well. After stopping the reaction between POD and substrate, the absorbance of the contents of each microwell at 450 nm was measured by the CLARIOstar plate reader.

[2] = test system: keratinocyte-dermal fibroblasts spheroids (KDFSs); assay: Vitamin C screening on KDFSs: collagen type I and fibronectin secretion; details: 24-hour treatment; KDFSs from two lineages of dermal fibroblasts
Experimental: Keratinocytes were suspended in EKGel II precursor solution at a cell/gel mass ratio of 75:25. The keratinocytes-in-EKGel II suspension was then purged into the channel and filled the microwells. Consequently, the cell suspension in the supplying channel was washed away by fluorinated oil mixed with 0.5 wt % surfactants. The device was sealed and incubated at 37° C. for 1 hour. Finally, the complete culture medium was flowed to the microfluidic device at the flow rate of 0.025 mL/hr. On Day 2, keratinocytes aggregated and integrated with the hDF core to form layered skin spheroids, KDFSs.
To study the effect of vitamin C or retinol on DFSs or KDFSs, on Day 2 the complete culture medium was replaced with 1% FBS DMEM culture medium with 1% (v/v) penicillin/streptomycin containing 0, 20, or 100 μg/mL vitamin C. […]
The amount of procollagen type I and fibronectin synthesized by hDFs and released in the supernatant were quantified using two ELISA kits, namely, Procollagen Type I C-Peptide (PIP) ELISA kit (MK101, Takara Bio Inc.) and Fibronectin ELISA kit (MK115, Takara Bio Inc.). […]
The supernatant was then discarded, and the microplates were washed with 1×PBS (MK021, Takara Bio Inc.) three times. […] After stopping the reaction between POD and substrate, the absorbance of the contents of each microwell at 450 nm was measured by the CLARIOstar plate reader.

[3] = test system: dermal fibroblasts spheroids (DFSs); assay: Immunofluorescence staining of collagen type I and fibronectin deposited in DFSs on the chip; details: 72-hour treatment, 100 μg/mL vs 0 μg/mL vitamin C
Experimental: as §1
The immunofluorescence staining on DFSs/KDFSs formed in the microfluidic device was conducted by flowing a series of solutions at a flow rate of 0.15 mL/hr into the supplying microchannel in the following order. First, 1× Hanks' Balanced Salt Solution (HBSS) was flowed into the device for 20 min to remove the cell culture medium. Subsequently, a 5% formalin solution in HBSS was flowed to fix the DFSs/DKFSs. Subsequently, the formalin was washed away by purging 0.1 M glycine in 1×HBSS for 60 min. To permeate the DFSs/KDFSs, 0.5% triton-X in 1×HBSS was flowed into the device for 30 min. Subsequently, an immunofluorescence (IF) solution (consisting of 0.05 wt % NaN3, 0.1 wt % bovine serum albumin, 0.2 vol. % triton-X-100 and 0.05 vol. % Tween-20 in HBSS) was flowed to the microfluidics for 45 min. Primary blocking solution (10 wt % goat serum in IF washing solution) was then flowed for 60 min. […]

[4] = 100 μg/mL vitamin C for 24-hours

| SMILES | effect on fibronectin production in DFSs ([1]; retinol 30 μM, preliminary study) | effect on fibronectin production in DFSs ([1]; retinol 45 μM, preliminary study) | effect of retinol on DFSs (fibronectin production) ([1]; retinol 60 μM, longer incubation time (day 5), preliminary study) | effect on collagen expression in DFSs ([1]; retinol 30, 45, 60 μM, preliminary study) | concentration required to stimulate the production of collagen and fibronectin in KDFSs compared to DFSs [2] | collagen type I secretion from DFSs [1, 4] | fibronectin secretion from DFSs [1, 4] | deposition of collagen type I in DFSs [3] | deposition of fibronectin in DFSs [3] |
| --- | --- | --- | --- | --- | --- | --- | --- | --- | --- |
| CC1=C(/C=C/C(C)=C/C=C/C(C)=C/CO)C(C)(C)CCC1 [retinol] | positive and significant effect | positive and significant effect | negative effect | significant positive effect of retinol was not yet observed |  |  |  |  |  |
| O=C1O[C@H]([C@@H](O)CO)C(O)=C1O [vitamin C] |  |  |  |  | a higher concentration of vitamin C was required | increased level | increased level | increased | increased |
